Measured values as given in the OligoGym collection.
After the bases stand the sugars from the 5' end (letter, count) and the backbone: PS all phosphorothioate, else s phosphorothioate and o phosphodiester by linkage. Methylation of C is not given here. e = 2'-O-(2-methoxyethyl) (MOE); k = constrained ethyl (cEt); d = 2'-deoxy (DNA); m = 2'-O-methyl

Target: HSD17B13
Conditions: ASO, HepaRG

Sequence	target mRNA inhibition (1 µM)	also measured
GACTATAAAAAGGGAG (sugars k3 d10 k3, PS)	40%	–
GACTGCTGCTAGTGCC (sugars k3 d9 k3 e1, PS)	49%	–
GACTTCTTACGACTTC (sugars k3 d10 k3, PS)	38%	–
GAGAAATCTAAGAACC (sugars k3 d10 k3, PS)	42%	–
GAGACATGAGGTTTTG (sugars kkdddddddddkekek, PS)	49%	–
GAGATAAAGCTGCCTG (sugars k3 d10 k3, PS)	67%	–
GAGATTACCCCTGGCT (sugars k3 d10 k3, PS)	72%	–
GAGCGATAGATCTCTT (sugars k3 d10 k3, PS)	0%	–
GAGTAAACGACTCTGT (sugars k3 d10 k3, PS)	43%	–
GAGTAATCAGTTTTCC (sugars k3 d10 k3, PS)	65%	–
GAGTAGATGATGGTGA (sugars k3 d10 k3, PS)	28%	–
GAGTAGTGGAGCCAGA (sugars k3 d10 k3, PS)	44%	–
GAGTCATAATTTGCTT (sugars k3 d10 k3, PS)	57%	–
GAGTCGGTCACCTTTC (sugars k3 d1 m1 d8 k3, PS)	55%	–
GAGTGCATCTTAAGAT (sugars k3 d1 m1 d8 k3, PS)	7%	–
GAGTTATCTGGTTTGC (sugars k3 d10 k3, PS)	84%	target mRNA inhibition (0.02 µM): 0%; target mRNA inhibition (0.078 µM): 0%; target mRNA inhibition (0.313 µM): 27%; target mRNA inhibition (1.25 µM): 68%; target mRNA inhibition (5 µM): 91%
GAGTTATTCTCTTGAC (sugars k3 d10 k3, PS)	57%	–
GAGTTCTACACCACAC (sugars k3 d10 k3, PS)	76%	target mRNA inhibition (0.02 µM): 0%; target mRNA inhibition (0.078 µM): 19%; target mRNA inhibition (0.313 µM): 32%; target mRNA inhibition (1.25 µM): 65%; target mRNA inhibition (5 µM): 87%
GAGTUGCACCGTTTTG (sugars k3 d1 m1 d8 k3, PS)	63%	–
GATAATATGTGACTTG (sugars k3 d10 k3, PS)	68%	–
GATAATTTGGTGTCAT (sugars k3 d10 k3, PS)	59%	–
GATAGTGAACATACAT (sugars k3 d10 k3, PS)	54%	–

Sequence	target mRNA inhibition (1 µM)	also measured
GATATTCTGTGGCATG (sugars kkdddddddddkekek, PS)	52%	–
GATCATTGCAGAAAGA (sugars k3 d10 k3, PS)	23%	–
GATCTCTTAGCTGTGC (sugars k3 d10 k3, PS)	64%	–
GATCTCTTAGCTGTGC (sugars kkdddddddddkekek, PS)	45%	–
GATCTGAGTTACATTA (sugars k3 d10 k3, PS)	69%	–
GATGAGTAGGCAACTG (sugars k3 d10 k3, PS)	42%	–
GATGCTCCATAATAAT (sugars k3 d1 m1 d8 k3, PS)	24%	–
GATGCTCCATAATAAT (sugars k3 d10 k3, PS)	42%	–
GATGGTGATCAGAAGC (sugars k3 d10 k3, PS)	52%	–
GATGTAGTGGGAGTCG (sugars kkdddddddddkekek, PS)	38%	–
GATTAAGCAGAATTGT (sugars kkdddddddddkekek, PS)	31%	–
GATTACAGCATCAAGA (sugars k3 d10 k3, PS)	52%	–
GATTAGTCTTGATGTA (sugars k3 d9 k3 e1, PS)	48%	–
GATTAGTCTTGATGTA (sugars kkdddddddddkekek, PS)	56%	–
GATTGTTACATCACCC (sugars k3 d10 k3, PS)	65%	target mRNA inhibition (0.02 µM): 15%; target mRNA inhibition (0.078 µM): 32%; target mRNA inhibition (0.313 µM): 33%; target mRNA inhibition (1.25 µM): 74%; target mRNA inhibition (5 µM): 91%
GATTTAGAGAGCGATA (sugars k3 d10 k3, PS)	44%	–
GCAATGAGATTACCCC (sugars k3 d10 k3, PS)	83%	target mRNA inhibition (0.02 µM): 3%; target mRNA inhibition (0.078 µM): 26%; target mRNA inhibition (0.313 µM): 58%; target mRNA inhibition (1.25 µM): 83%; target mRNA inhibition (5 µM): 89%
GCAATTTACTTTCAGC (sugars k3 d10 k3, PS)	66%	–
GCACCAACTATGTAAT (sugars k3 d10 k3, PS)	53%	–
GCAGAAATTCACCTTG (sugars kkdddddddddkekek, PS)	53%	–
GCAGCATTGATTCGAA (sugars k3 d10 k3, PS)	63%	–
